The values that follow come from patent US8344028B2, “Gamma-amino-butyric acid derivatives as GABAB receptor ligands” (XenoPort, Inc., priority 2009, dated 2013).

In assay [1] the target is T1, GABAB receptor (Rattus norvegicus, UniProt Q9Z0U4).
T1 construct: from tissue; host or cells: rat cerebral cortex membranes
Kind of assay: [3H]CGP54626 rat brain GABAB receptor binding assay. As to conditions: [3H]CGP54626 rat brain binding assay. As for the experimental part:
An assay using rat cerebral cortex membranes was used to determine the affinity of GABAB receptor ligands for the GABAB receptor.
An assay buffer of 50 mM Tris pH 7.4 was prepared with 100 μM of isoguvacine, to block GABAA interactions. The assay buffer with isoguvacine was used for dilution of membranes, compounds, and radiolabel.
Rat cerebral cortex membranes were diluted in assay buffer at 1 mg/mL and aliquoted into a 96-well plate at 900 μL/well. Buffer or test compound were added at 20-times final concentration in the buffer at 50 μL/well. Membranes and test compounds or buffer were incubated for 10 min. at room temperature. Radiolableled [S—(R*,R*)]-[3-[[1-(3,4-dichlorophenyl)ethyl]amino]-2-hydroxypropyl](cyclohexylmethyl) phosphinic acid (CGP54626) was then added at 50 μL/well in the buffer at 1-10 nM concentration in 50 μl. The mixture was incubated for 15 min. at room temperature. The assay mixture was filtered using Brandell filtration apparatus and GFB filters, washed twice with 3 mL of 4° C., 50 mM Tris pH 7.4, buffer without isoguvacine. The filters were then dried at room temperature and the dried filters punched out and placed in individual vials. Three (3) mL of scintillation fluid was added to each vial and the radiolabel counted on the scintillation counter. The inverse amount of radiolabel was indicative of binding of a test compound to the GABAB receptor.

For assay [2], the target named is T2, recombinant human GABABR1a2 (Homo sapiens, UniProt Q9UBS5).
T2 construct: expressed in transfected cells; host or cells: HEK cells
T2 sequence (Q9UBS5 15-961 limits assumed): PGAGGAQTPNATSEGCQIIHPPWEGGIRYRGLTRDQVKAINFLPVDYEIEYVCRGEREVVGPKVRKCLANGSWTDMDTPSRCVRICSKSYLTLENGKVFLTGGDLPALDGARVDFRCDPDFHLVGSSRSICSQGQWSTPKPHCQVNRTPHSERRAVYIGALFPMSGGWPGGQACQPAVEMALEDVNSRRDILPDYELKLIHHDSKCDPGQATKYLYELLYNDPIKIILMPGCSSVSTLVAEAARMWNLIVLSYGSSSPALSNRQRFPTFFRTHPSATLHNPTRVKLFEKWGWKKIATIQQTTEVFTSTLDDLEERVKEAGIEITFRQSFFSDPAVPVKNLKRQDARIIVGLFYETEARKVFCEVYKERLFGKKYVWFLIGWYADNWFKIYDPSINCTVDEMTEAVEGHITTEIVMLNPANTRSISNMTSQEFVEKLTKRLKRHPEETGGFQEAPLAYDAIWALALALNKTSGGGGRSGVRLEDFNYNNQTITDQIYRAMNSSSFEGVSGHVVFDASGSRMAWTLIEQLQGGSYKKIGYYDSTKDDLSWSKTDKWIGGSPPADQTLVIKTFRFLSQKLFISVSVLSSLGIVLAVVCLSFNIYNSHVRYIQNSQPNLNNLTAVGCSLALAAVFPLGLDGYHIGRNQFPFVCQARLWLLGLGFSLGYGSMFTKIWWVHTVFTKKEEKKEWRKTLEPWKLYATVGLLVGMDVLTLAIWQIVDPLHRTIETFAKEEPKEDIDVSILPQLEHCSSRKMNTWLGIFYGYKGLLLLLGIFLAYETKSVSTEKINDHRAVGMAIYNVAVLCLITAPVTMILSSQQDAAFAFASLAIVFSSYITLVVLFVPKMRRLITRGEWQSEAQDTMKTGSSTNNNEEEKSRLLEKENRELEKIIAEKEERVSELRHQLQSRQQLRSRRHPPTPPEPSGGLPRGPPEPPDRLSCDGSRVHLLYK
T2 sequence (O75899 42-941 partner): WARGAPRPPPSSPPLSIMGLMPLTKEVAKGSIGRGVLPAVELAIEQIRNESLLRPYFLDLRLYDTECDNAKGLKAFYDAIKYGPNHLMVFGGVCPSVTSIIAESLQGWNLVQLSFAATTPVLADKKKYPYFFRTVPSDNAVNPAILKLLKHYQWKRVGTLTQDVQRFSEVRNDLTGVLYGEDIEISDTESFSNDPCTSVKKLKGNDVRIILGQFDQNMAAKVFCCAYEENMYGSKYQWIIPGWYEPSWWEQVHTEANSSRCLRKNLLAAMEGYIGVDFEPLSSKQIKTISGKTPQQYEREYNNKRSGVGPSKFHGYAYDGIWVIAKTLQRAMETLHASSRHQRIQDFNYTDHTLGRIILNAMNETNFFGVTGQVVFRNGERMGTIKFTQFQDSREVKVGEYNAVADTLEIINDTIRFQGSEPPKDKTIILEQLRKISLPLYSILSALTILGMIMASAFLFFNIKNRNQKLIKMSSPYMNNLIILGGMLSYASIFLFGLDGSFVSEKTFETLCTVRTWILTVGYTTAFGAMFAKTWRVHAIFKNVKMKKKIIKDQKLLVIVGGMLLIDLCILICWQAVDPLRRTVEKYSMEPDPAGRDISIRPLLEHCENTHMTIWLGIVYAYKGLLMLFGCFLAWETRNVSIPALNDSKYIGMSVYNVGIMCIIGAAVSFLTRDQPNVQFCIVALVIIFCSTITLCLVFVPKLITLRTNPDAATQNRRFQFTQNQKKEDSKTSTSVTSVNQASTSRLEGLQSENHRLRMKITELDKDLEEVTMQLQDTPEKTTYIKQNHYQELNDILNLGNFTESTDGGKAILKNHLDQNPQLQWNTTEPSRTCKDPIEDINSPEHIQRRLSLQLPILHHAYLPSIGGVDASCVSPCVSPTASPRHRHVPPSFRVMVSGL
Description: Ca2+ assay for determining GABAB receptor agonist activity. As to conditions: cells expressing recombinant human GABABR1a2. The format is cell-based. The procedure:
The following procedure was used to determine the GABAB receptor agonist activity of a compound as reflected by activation of Ca^2+ signaling. HEK TREx cells expressing GABABR1a2 under tetracycline induction control, and Gqi chimeric protein (expressed constitutively), allowing GABABR coupling through the Ca^2+ signaling pathway were used in the experiments.
Cells were seeded in media containing tetracycline overnight at 100,000 cells/well, in black, clear-bottom, 96-well plates. The following morning, cells were washed twice with 100 μL HBSS buffer per well. Fluorescent Ca^2+ indicator dye was prepared using the materials and procedure described in the F362056 Fluo-4 NW Calcium Assay Kit (Invitrogen, Carlsbad, Calif.). Ten (10) mL of kit buffer and 100 μl of kit Probenecid were added to individual kit dye vials, and rolled back and forth several times to dissolve the dye. Cells were then loaded into the dye solution at 50 μL per well. The cells and dye were incubated for 30 min at 37° C., and then incubated for an additional 30 min at room temperature in the dark. Test compounds are dissolved in HBSS buffer at twice final concentration. Duplicate wells were used for each unique condition. Solution containing the test compound was added to the wells using a FLEXStation II (Molecular Devices, Sunnyvale, Calif.). Using the instrument in kinetic mode in which each well was read every 2 sec over a total collection time of 50 sec fluorescence was measured using an excitation wavelength 494 nm and a detection wavelength of 516 nm. A normalized fluorescence value for each well was calculated using the following procedure. The difference in fluorescence at 35 sec (usually representing maximal response) and at 15 sec (a time point prior to addition of test compounds) was calculated, divided by the fluorescence at 15 sec, and the result multiplied by 100. The final value represented the percent increase in fluorescence relative to the fluorescence at 15 sec. Data was analyzed using standard procedures.

Assay [3] addresses GABAB receptor (Homo sapiens, UniProt Q9UBS5). Kind of assay: GABAB receptor agonist or partial agonist activity by binding, electrophysiology, cAMP and/or Ca2+ assay methods (Examples 83-86). The format is cell-based. In a few lines:
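Binding: rat cortex membranes in 50 mM Tris pH 7.4 with 100 μM isoguvacine were preincubated 10 min at RT with compound, then radiolabeled CGP54626 (1-10 nM) was added; filtered and scintillation-counted. cAMP: GABAB R1a2 HEK cells, 1 h RT with 100 μM forskolin, chemiluminescence.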

In assay [4] the target is T2, recombinant human GABABR1a2. Kind of assay: cAMP assay for determining GABAB receptor agonist activity. The class given is cell-based. The procedure:
The following procedure was used to determine the level of intracellular cAMP. Recombinant HEK cells expressing the GABAB R1a2 receptor were used in the experiments. cAMP levels were measured using a cAMP XS^+ HitHunter™ Chemiluminescence Assay Kit (90-0075-02, GE Healthcare Biosciences Corp.). Cells were seeded overnight at 5,000 cells per well, in black, clear bottom 96-well plates. The following morning, cells were washed twice with 100 μL PBS per well. Forskolin was weighed out and dissolved in DMSO to a final concentration 100 mM. One-hundred (100) μM forskolin solutions were prepared in PBS with and without test compound at 1-times final concentration. Thirty (30) μL of the test solutions were added to the wells and incubated for 1 h at room temperature. The cAMP concentration was determined according to the protocol described in the cAMP assay kit, maintaining the plate at room temperature and in the dark. Two hours after the final kit reagent was added, the plate bottom was covered with black tape, and the plate read using a 1450 MicroBeta Trilux microplate scintillation and luminescence counter (PerkinElmer, Waltham, Mass.). Each well was read for 6 seconds. The untransformed data was then analyzed.
On the technique in general: Cyclic AMP is a second messenger, typically raised through Gs and lowered through Gi signalling.

Where [5] appears, read: cells expressing recombinant human GABABR1a2, read-out: cAMP EC50.

Structures can show the parent of a compound that is named as a salt.

The IC50 is the concentration needed to halve the response being measured. As a reminder, the EC50 is the concentration giving half of the maximal effect.

T1 sequence (Q9Z0U4 20-960): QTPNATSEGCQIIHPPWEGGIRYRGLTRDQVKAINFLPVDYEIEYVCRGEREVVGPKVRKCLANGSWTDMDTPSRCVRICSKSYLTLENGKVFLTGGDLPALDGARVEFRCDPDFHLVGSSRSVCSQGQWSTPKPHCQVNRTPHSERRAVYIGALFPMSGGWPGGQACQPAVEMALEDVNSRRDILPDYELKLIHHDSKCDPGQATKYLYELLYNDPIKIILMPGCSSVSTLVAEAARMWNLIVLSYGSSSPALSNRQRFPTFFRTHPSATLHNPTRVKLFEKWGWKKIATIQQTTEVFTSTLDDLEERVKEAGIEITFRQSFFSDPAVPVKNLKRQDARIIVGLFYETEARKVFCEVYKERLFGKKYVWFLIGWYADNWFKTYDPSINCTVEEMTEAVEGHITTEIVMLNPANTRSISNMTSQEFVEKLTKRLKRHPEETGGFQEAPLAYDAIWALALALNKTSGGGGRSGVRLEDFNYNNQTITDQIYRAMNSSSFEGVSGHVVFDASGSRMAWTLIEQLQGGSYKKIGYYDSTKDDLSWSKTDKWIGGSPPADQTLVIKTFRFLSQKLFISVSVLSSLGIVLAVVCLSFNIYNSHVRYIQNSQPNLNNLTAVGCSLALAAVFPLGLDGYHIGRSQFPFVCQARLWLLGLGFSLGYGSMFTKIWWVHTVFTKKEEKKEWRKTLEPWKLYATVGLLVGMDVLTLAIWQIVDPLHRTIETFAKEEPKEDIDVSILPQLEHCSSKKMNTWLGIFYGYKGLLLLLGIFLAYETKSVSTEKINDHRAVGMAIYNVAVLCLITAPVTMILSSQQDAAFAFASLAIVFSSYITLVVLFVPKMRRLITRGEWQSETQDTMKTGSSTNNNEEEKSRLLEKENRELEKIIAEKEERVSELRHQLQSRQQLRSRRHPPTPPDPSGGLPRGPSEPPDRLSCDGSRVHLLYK
T1 sequence (O88871 41-940 partner): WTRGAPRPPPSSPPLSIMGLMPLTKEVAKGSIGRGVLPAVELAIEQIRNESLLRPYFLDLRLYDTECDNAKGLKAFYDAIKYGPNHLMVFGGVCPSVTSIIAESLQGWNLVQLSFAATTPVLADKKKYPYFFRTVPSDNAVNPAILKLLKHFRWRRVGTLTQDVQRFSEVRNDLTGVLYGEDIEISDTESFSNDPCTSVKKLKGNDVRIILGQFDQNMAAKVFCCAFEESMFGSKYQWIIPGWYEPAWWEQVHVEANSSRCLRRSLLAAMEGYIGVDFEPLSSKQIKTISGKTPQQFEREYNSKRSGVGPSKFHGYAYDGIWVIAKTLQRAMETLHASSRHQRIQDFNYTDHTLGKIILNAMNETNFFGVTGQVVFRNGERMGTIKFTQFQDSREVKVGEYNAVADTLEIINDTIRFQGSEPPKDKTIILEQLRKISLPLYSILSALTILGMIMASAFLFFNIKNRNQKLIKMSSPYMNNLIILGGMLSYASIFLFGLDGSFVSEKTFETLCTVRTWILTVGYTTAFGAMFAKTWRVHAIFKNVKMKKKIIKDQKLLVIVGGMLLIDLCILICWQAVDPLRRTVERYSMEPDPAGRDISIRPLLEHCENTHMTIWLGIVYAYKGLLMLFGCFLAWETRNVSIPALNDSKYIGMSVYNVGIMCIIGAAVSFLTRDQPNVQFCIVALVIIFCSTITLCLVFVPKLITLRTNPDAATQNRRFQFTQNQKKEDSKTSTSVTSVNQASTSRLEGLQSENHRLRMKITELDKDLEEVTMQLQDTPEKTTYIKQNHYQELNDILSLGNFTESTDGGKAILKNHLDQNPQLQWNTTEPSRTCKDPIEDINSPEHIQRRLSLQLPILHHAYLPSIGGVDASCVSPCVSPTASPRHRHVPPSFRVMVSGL
GABAB receptor (Homo sapiens, UniProt Q9UBS5), sequence (Q9UBS5 20-961): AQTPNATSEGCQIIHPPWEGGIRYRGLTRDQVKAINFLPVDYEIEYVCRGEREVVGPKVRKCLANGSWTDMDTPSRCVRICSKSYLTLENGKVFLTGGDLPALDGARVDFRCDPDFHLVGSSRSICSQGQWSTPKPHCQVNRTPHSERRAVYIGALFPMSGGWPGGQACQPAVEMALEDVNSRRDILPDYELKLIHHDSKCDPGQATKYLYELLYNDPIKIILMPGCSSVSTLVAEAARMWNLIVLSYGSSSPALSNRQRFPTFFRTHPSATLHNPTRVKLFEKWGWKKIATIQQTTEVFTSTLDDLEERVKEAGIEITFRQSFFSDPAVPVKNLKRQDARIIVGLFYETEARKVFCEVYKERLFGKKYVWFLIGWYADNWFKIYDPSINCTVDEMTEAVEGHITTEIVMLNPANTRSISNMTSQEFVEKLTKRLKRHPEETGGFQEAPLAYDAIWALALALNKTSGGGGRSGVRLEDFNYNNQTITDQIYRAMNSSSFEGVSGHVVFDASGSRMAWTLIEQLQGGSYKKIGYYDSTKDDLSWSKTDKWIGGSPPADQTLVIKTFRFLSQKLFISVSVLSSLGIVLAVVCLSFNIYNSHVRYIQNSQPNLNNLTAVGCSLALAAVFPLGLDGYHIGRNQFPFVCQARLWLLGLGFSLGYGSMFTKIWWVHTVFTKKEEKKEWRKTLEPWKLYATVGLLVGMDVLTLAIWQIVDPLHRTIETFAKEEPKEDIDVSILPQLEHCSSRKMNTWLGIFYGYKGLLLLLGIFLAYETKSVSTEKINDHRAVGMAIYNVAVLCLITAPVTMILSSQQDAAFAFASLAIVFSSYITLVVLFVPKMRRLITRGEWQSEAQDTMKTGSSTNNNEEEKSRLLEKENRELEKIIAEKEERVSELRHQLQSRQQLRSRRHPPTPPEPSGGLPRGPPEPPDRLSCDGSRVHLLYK
GABAB receptor (Homo sapiens, UniProt Q9UBS5), sequence (O75899 42-941 partner): as the sequence (O75899 42-941 partner) above

The compound `Cl.NC[C@H](CC(=O)O)c1ccc(Cl)c(-c2ccc(F)c(C(=O)O)c2)c1` [5-{5-[(1R)-2-amino-1-(carboxymethyl)ethyl]-2-chlorophenyl}-2-fluorobenzoic acid hydrochloride] gave a 50% inhibitory concentration (IC50) on GABAB receptor [1] of less than 25000 nM. Further, the EC50 in assay [2] is less than 700 nM; in assay [4] (setting [5]) it was less than 100 nM. In addition, on GABAB receptor [3], the “GABAB receptor agonist or partial agonist activity” value is given as “agonist or partial agonist activity”.
With `NC[C@H](CC(=O)O)c1ccc(Cl)c(OCc2cncs2)c1` [(3R)-4-amino-3-[4-chloro-3-(1,3-thiazol-5-ylmethoxy)phenyl]butanoic acid hydrochloride], on GABAB receptor [1], the IC50 was less than 25000 nM. Besides, the EC50 is less than 700 nM in assay [2] and less than 100 nM in assay [4] (setting [5]).
The like results for `NC[C@H](CC(=O)O)c1ccc(Cl)c(OCCc2ccncc2)c1` [(3R)-4-amino-3-[4-chloro-3-(2-(4-pyridyl)ethoxy)phenyl]butanoic acid hydrochloride] were, in that order, less than 25000 nM, less than 700 nM and less than 100 nM.
On GABAB receptor [1], `Cl.NC[C@H](CC(=O)O)c1ccc(Cl)c(CCc2ccncc2)c1` [(3R)-4-amino-3-[4-chloro-3-(2-(4-pyridyl)ethyl)phenyl]butanoic acid hydrochloride] showed an IC50 of less than 25000 nM. For the same compound, the half-maximal effective concentration (EC50) is less than 700 nM in assay [2] and less than 100 nM in assay [4] (setting [5]). For the same compound, the “GABAB receptor agonist or partial agonist activity” value on GABAB receptor [3] was “agonist or partial agonist activity”.
The like results for `Cl.N#Cc1cc(F)cc(-c2cc([C@H](CN)CC(=O)O)ccc2Cl)c1` [(3R)-4-amino-3-[4-chloro-3-(3-cyano-5-fluorophenyl)phenyl]butanoic acid hydrochloride] were, in that order, less than 25000 nM, less than 700 nM, less than 100 nM and “agonist or partial agonist activity”.
For `Cl.N#Cc1ccc(F)c(-c2cc([C@H](CN)CC(=O)O)ccc2Cl)c1` [(3R)-4-amino-3-[4-chloro-3-(3-cyano-6-fluorophenyl)phenyl]butanoic acid hydrochloride] the same measures were less than 25000 nM, less than 700 nM, less than 100 nM and “agonist or partial agonist activity”.
For `Cc1ccc(C#N)cc1-c1cc([C@H](CN)CC(=O)O)ccc1Cl.Cl` [(3R)-4-amino-3-[4-chloro-3-(3-cyano-6-methylphenyl)phenyl]butanoic acid hydrochloride] the same measures were less than 25000 nM, less than 700 nM, less than 100 nM and “agonist or partial agonist activity”.
Turning to `Cl.NC[C@H](CC(=O)O)c1ccc(Cl)c(OCc2cccnc2)c1` [(3R)-4-amino-3-[4-chloro-3-(3-pyridylmethoxy)phenyl]butanoic acid hydrochloride], at GABAB receptor [1], the IC50 is less than 25000 nM. Further, the EC50 is less than 700 nM in assay [2] and less than 100 nM in assay [4] (setting [5]). Also, the “GABAB receptor agonist or partial agonist activity” value on GABAB receptor [3] is listed as “agonist or partial agonist activity”.
The like results for `Cc1ccncc1-c1cc([C@H](CN)CC(=O)O)ccc1Cl.Cl` [(3R)-4-amino-3-[4-chloro-3-(4-methyl(3-pyridyl))phenyl]butanoic acid hydrochloride] were, in that order, less than 25000 nM, less than 700 nM, less than 100 nM and “agonist or partial agonist activity”.
For the compound `N#Cc1cc(-c2cc([C@H](CN)CC(=O)O)ccc2Cl)cs1` [(3R)-4-amino-3-[4-chloro-3-(5-cyano(3-thienyl))phenyl]butanoic acid hydrochloride], on GABAB receptor [1], the half-inhibitory concentration (IC50) was less than 25000 nM. Besides, the figures for the concentration giving a half-maximal response (EC50) in assay [2] and in assay [4] (setting [5]) were less than 700 nM and less than 100 nM, respectively.
`Cl.N#Cc1ccc(Cl)c(-c2cc([C@H](CN)CC(=O)O)ccc2Cl)c1` [(3R)-4-amino-3-[4-chloro-3-(6-chloro-3-cyanophenyl)phenyl]butanoic acid hydrochloride]: on GABAB receptor [1], the concentration for half-maximal inhibition (IC50) was less than 25000 nM. In addition, the results for the EC50 in assay [2] and in assay [4] (setting [5]) were less than 700 nM and less than 100 nM, respectively. In addition, the “GABAB receptor agonist or partial agonist activity” value on GABAB receptor [3] is recorded as “agonist or partial agonist activity”.
`CN(C)C(=O)c1ccc(-c2cc([C@H](CN)CC(=O)O)ccc2Cl)s1` [(3R)-4-amino-3-{3-[5-(N,N-dimethylcarbamoyl)(2-thienyl)]-4-chlorophenyl}butanoic acid hydrochloride] gave an IC50 on GABAB receptor [1] of less than 25000 nM. Further, the EC50 was less than 700 nM in assay [2] and less than 100 nM in assay [4] (setting [5]).
The like results for `Cc1cc(COc2cc([C@H](CN)CC(=O)O)ccc2Cl)ccn1` [(3R)-4-amino-3-{4-chloro-3-[(2-methyl(4-pyridyl))methoxy]phenyl}butanoic acid hydrochloride] were, in that order, less than 25000 nM, less than 700 nM and less than 100 nM.
For `NC[C@H](CC(=O)O)c1ccc(Cl)c(OCc2ccncc2Cl)c1` [(3R)-4-amino-3-{4-chloro-3-[(3-chloro(4-pyridyl))methoxy]phenyl}butanoic acid hydrochloride] the same measures were less than 25000 nM, less than 700 nM and less than 100 nM.
On to `Cl.NC[C@H](CC(=O)O)c1ccc(Cl)c(-c2cccc(C(=O)O)c2)c1` [Example 25, 3-{5-[(1R)-2-Amino-1-(carboxymethyl)ethyl]-2-chlorophenyl}benzoic acid hydrochloride], for which, at GABAB receptor [1], the IC50 was less than 25000 nM. In addition, the EC50 in assay [2] was less than 700 nM; in assay [4] (setting [5]), less than 100 nM. Also, on GABAB receptor [3], the “GABAB receptor agonist or partial agonist activity” value is “agonist or partial agonist activity”.
`NC[C@H](CC(=O)O)c1ccc(Cl)c(-c2ccc([N+](=O)[O-])cc2)c1` [Example 47, (3R)-4-Amino-3-[4-chloro-3-(4-nitrophenyl)phenyl]butanoic acid hydrochloride] came in with an IC50 at GABAB receptor [1] of less than 25000 nM. Also, the EC50 in assay [2] is less than 700 nM; in assay [4] (setting [5]), less than 100 nM.
The compound `NCC(C[PH](=O)O)c1ccc(Cl)c(OCc2ccncc2)c1` (stereo not drawn) [Example 82, 2-{4-Chloro-3-(4-pyridylmethoxy)phenyl]-3-(hydrohydroxyphosphoryl)propylamine] displayed an IC50 at GABAB receptor [1] of less than 25000 nM. The values for the EC50 in assay [2] and in assay [4] were less than 700 nM and less than 100 nM, respectively.
`COC(=O)C[C@@H](CN)c1ccc(Cl)c(OCc2ccncc2)c1` [methyl (3R)-4-amino-3-[4-chloro-3-(4-pyridylmethoxy)phenyl]butanoate hydrochloride] displayed an IC50 on GABAB receptor [1] of less than 25000 nM. The EC50 is less than 700 nM in assay [2] and less than 100 nM in assay [4] (setting [5]).
